Laboratory results taken from US10428044B2, “3-amino-1,5,6,7-tetrahydro-4H-indol-4-ones” (Bayer Pharma Aktiengesellschaft, priority 2014, dated 2019).

biological target: (recombinant) catalytic domain of human Bub1 (amino acids 704-1085) (Homo sapiens (Human), UniProt O43683); assay: Bub1 kinase assay (TR-FRET); assay type: biochemical; details: ATP 10 μM final, peptide substrate 1 μM final, 60 min at 22° C., read-out: Biological Assay: Bub1 kinase assay median IC50
Method in brief: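 Compounds were serially diluted 1:3.4 from 2 mM DMSO stocks and incubated with the enzyme reaction for 60 min at 22° C. The reaction was stopped with EDTA, and biotinylated peptide phosphorylation was read by TR-FRET using Eu anti-mouse IgG, anti-phosphoserine antibody and streptavidin-XL665. IC50 was fitted by 4-parameter logistic to inhibition normalized to no-inhibitor and no-enzyme controls.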

(recombinant) catalytic domain of human Bub1 (amino acids 704-1085), sequence (O43683 704-1085): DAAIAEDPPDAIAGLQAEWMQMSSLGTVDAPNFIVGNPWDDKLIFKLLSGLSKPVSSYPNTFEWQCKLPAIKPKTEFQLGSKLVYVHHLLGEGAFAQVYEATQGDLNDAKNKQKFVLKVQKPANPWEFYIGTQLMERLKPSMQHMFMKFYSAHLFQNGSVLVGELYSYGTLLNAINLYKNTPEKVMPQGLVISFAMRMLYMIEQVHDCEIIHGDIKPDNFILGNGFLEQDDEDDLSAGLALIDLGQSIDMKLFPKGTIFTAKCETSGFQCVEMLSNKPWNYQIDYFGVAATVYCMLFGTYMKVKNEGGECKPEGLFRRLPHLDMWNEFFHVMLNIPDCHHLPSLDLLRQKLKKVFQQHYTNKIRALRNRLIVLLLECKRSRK

Row | SMILES | IC50 [nM]
1 | CC1(C)CC(=O)c2c([nH]c(-c3ccncc3)c2Nc2ccccn2)C1 [Example 25, 6,6-dimethyl-2-(pyridin-4-yl)-3-(pyridin-2-ylamino)-1,5,6,7-tetrahydro-4H-indol-4-one] | 26.3
2 | CC1(C)CC(=O)c2c([nH]c(-c3ccncc3)c2Nc2ccc3ccoc3c2)C1 [Example 26, 3-(1-benzofuran-6-ylamino)-6,6-dimethyl-2-(pyridin-4-yl)-1,5,6,7-tetrahydro-4H-indol-4-one] | 32.7
3 | O=C1CC(C(F)(F)F)Cc2[nH]c(-c3ccncc3)c(Nc3ccccc3)c21 (centres unmarked) [Example 20, 3-(phenylamino)-2-(pyridin-4-yl)-6-(trifluoromethyl)-1,5,6,7-tetrahydro-4H-indol-4-one] | 9.33
4 | CC1(C)CC(=O)c2c([nH]c(-c3ccncc3)c2Nc2ccc3[nH]ccc3c2)C1 [Example 70, 3-(1H-indol-5-ylamino)-6,6-dimethyl-2-(pyridin-4-yl)-1,5,6,7-tetrahydro-4H-indol-4-one] | 81.7
5 | CC1(C)CC(=O)c2c([nH]c(-c3ccncc3)c2Nc2cccc(OC(F)F)c2)C1 [Example 117, 3-{[3-(difluoromethoxy)phenyl]amino}-6,6-dimethyl-2-(pyridin-4-yl)-1,5,6.7-tetrahydro-4H-indol-4-one] | 175
6 | CC1(C)CC(=O)c2c([nH]c(-c3ccncc3OC(C)(C)C)c2Nc2ccccc2)C1 [Example 407, 2-(3-tert-butoxypyridin-4-yl)-6,6-dimethyl-3-(phenylamino)-1,5,6,7-tetrahydro-4H-indol-4-one] | 600
7 | CCOc1cccc(Nc2c(-c3ccncc3)[nH]c3c2C(=O)CC(C)(C)C3)c1 [Example 104, 3-[(3-ethoxyphenyl)amino]-6,6-dimethyl-2-(pyridin-4-yl)-1,5,6,7-tetrahydro-4H-indol-4-one] | 524
8 | Nc1cc(-c2[nH]c3c(c2Nc2ccccc2)C(=O)CCC3)ccn1 [Example 139, 2-(2-aminopyridin-4-yl)-3-(phenylamino)-1,5,6,7-tetrahydro-4H-indol-4-one] | 113
9 | Cc1cnccc1-c1[nH]c2c(c1Nc1ccccc1)C(=O)CC(C)(C)C2 [Example 131, 6,6-dimethyl-2-(3-methylpyridin-4-yl)-3-(phenylamino)-1,5,6,7-tetrahydro-4H-indol-4-one] | 51.8
10 | CC1CC(=O)c2c([nH]c(-c3ccncc3)c2Nc2ccccc2)C1 (centres unmarked) [Example 22, 6-methyl-3-(phenylamino)-2-(pyridin-4-yl)-1,5,6,7-tetrahydro-4H-indol-4-one] | 10.5
11 | CC1(C)CC(=O)c2c([nH]c(-c3ccncc3)c2Nc2cccc(O)c2)C1 [Example 89, 3-[(3-hydroxyphenyl)amino]-6,6-dimethyl-2-(pyridin-4-yl)-1,5,6,7-tetrahydro-4H-indol-4-one] | 288
12 | CCC(=O)Nc1cc(-c2[nH]c3c(c2Nc2ccccc2)C(=O)CC(C)(C)C3)ccn1 [Example 35, N-{4-[6,6-dimethyl-4-oxo-3-(phenylamino)-4,5,6,7-tetrahydro-1H-indol-2-yl]pyridin-2-yl}propanamide] | 17.4
13 | Cc1ccccc1Nc1c(-c2ccncc2)[nH]c2c1C(=O)CC(C)(C)C2 [Example 53, 6,6-dimethyl-3-[(2-methylphenyl)amino]-2-(pyridin-4-yl)-1,5,6,7-tetrahydro-4H-indol-4-one] | 82.2
14 | O=C1CCCc2[nH]c(-c3ccncc3)c(Nc3ccc(F)c(F)c3)c21 [Example 38, 3-[(3,4-difluorophenyl)amino]-2-(pyridin-4-yl)-1,5,6,7-tetrahydro-4H-indol-4-one] | 7.97
15 | CC(=O)N(C(C)=O)c1cc(-c2[nH]c3c(c2Nc2ccccc2)C(=O)CC(C)(C)C3)ccn1 [Example 133, N-acetyl-N-{4-[6,6-dimethyl-4-oxo-3-(phenylamino)-4,5,6,7-tetrahydro-1H-indol-2 yl]pyridin-2-yl}acetamide] | 49.2

The remaining lines, values ahead:

Row | IC50 [nM] | SMILES
16 | 23.3 | CC1(C)CC(=O)c2c([nH]c(-c3ccnc(NC(=O)c4cc(F)cc(F)c4)c3)c2Nc2ccccc2)C1 [Example 467, N-{4-[6,6-dimethyl-4-oxo-3-(phenylamino)-4,5,6,7-tetrahydro-1H-indol-2-yl]pyridin-2-yl}-3,5-difluorobenzamide]
17 | 10900 | CC1(C)CC(=O)c2c([nH]c(-c3ccncc3C#N)c2Nc2cccc(F)c2)C1 [Example 198, 4-{3-[(3-fluorophenyl)amino]-6,6-dimethyl-4-oxo-4,5,6,7-tetrahydro-1H-indol-2-yl}pyridine-3-carbonitrile]
18 | 694 | CC(C)(C)OC(=O)N1CC(CNc2cc(-c3[nH]c4c(c3Nc3ccccc3)C(=O)CCC4)ccn2)C1 [Example 373, tert-butyl 3-[({4-[4-oxo-3-(phenylamino)-4,5,6,7-tetrahydro-1H-indol-2-yl]pyridin-2-yl}amino)methyl]azetidine-1-carboxylate]
19 | 199 | CC1(C)CC(=O)c2c(Nc3ccccc3)c(-c3ccncc3)n(CC(F)(F)F)c2C1 [Example 180, 6,6-dimethyl-3-(phenylamino)-2-(pyridin-4-yl)-1-(2,2,2-trifluoroethyl)-1,5,6,7-tetrahydro-4H-indol-4-one]
20 | 255 | CC(C)(CO)C(=O)Nc1cc(-c2[nH]c3c(c2Nc2ccccc2)C(=O)CCC3)ccn1 [Example 243, 3-hydroxy-2,2-dimethyl-N-{4-[4-oxo-3-(phenylamino)-4,5,6,7-tetrahydro-1H-indol-2-yl]pyridin-2-yl}propanamide]
21 | 1720 | CCNC(=O)c1cccc(Nc2c(-c3ccncc3)[nH]c3c2C(=O)CC(C)(C)C3)c1 [Example 144, 3-{[6,6-dimethyl-4-oxo-2-(pyridin-4-yl)-4,5,6,7-tetrahydro-1H-indol-3-yl]amino}-N-ethylbenzamide]
22 | 2160 | CC1(C)CC(=O)c2c([nH]c(-c3ccnc(O)c3)c2Nc2ccccc2)C1 [Example 469, 2-(2-hydroxypyridin-4-yl)-6,6-dimethyl-3-(phenylamino)-1,5,6,7-tetrahydro-4H-indol-4-one]
23 | 2.58 | CC1(C)CC(=O)c2c([nH]c(-c3ccncc3)c2Nc2ccccc2CO)C1 [Example 426, 3-{[2-(hydroxymethyl)phenyl]amino}-6,6-dimethyl-2-(pyridin-4-yl)-1,5,6,7-tetrahydro-4H-indol-4-one]
24 | 53.7 | CC(C)Oc1cnccc1-c1[nH]c2c(c1Nc1ccccc1)C(=O)CC(C)(C)C2 [Example 406, 6,6-dimethyl-3-(phenylamino)-2-[3-(propan-2-yloxy)pyridin-4-yl]-1,5,6,7-tetrahydro-4H-indol-4-one]
25 | 480 | CN[C@H](C)C(=O)Nc1cc(-c2[nH]c3c(c2Nc2ccccc2)C(=O)CCC3)ccn1 [Example 302, N^2-methyl-N-{4-[4-oxo-3-(phenylamino)-4,5,6,7-tetrahydro-1H-indol-2-yl]pyridin-2-yl}-D-alaninamide]
26 | 9.9 | C=CCOCC(=O)Nc1cc(-c2[nH]c3c(c2Nc2ccccc2)C(=O)CCC3)ccn1 [Example 335, N-{4-[4-oxo-3-(phenylamino)-4,5,6,7-tetrahydro-1H-indol-2-yl]pyridin-2-yl}-2-(prop-2-en-1-yloxy)acetamide]
27 | 56.7 | CC1(C(=O)Nc2cc(-c3[nH]c4c(c3Nc3ccccc3)C(=O)CCC4)ccn2)CC1 [Example 228, 1-methyl-N-{4-[4-oxo-3-(phenylamino)-4,5,6,7-tetrahydro-1H-indol-2-yl]pyridin-2-yl}cyclopropanecarboxamide]
28 | 78.7 | O=C1CCCc2[nH]c(-c3ccncc3OCC(F)(F)F)c(Nc3ccccc3)c21 [Example 458, 3-(phenylamino)-2-[3-(2,2,2-trifluoroethoxy)pyridin-4-yl]-1,5,6,7-tetrahydro-4H-indol-4-one]
29 | 19.9 | COC(=O)Nc1cc(-c2[nH]c3c(c2Nc2cccc(F)c2)C(=O)CCC3)ccn1 [Example 312, methyl (4-{3-[(3-fluorophenyl)amino]-4-oxo-4,5,6,7-tetrahydro-1H-indol-2-yl}pyridin-2-yl)carbamate]
30 | 5.03 | O=C1CC2(CC2)Cc2[nH]c(-c3ccnc(NC(=O)[C@H]4C[C@@H]4F)c3)c(Nc3ccccc3)c21 (relative stereo) [Example 466, rel-(R,S)-2-fluoro-N-{4-[4′-oxo-3′-(phenylamino)-1′,4′,5′,7′-tetrahydrospiro[cyclopropane-1,6′-indol]-2′-yl]pyridin-2-yl}cyclopropanecarboxamide]
31 | 113 | O=C(NCc1ccco1)Nc1cc(-c2[nH]c3c(c2Nc2ccccc2)C(=O)CCC3)ccn1 [Example 384, 1-(furan-2-ylmethyl)-3-{4-[4-oxo-3-(phenylamino)-4,5,6,7-tetrahydro-1H-indol-2-yl]pyridin-2-yl}urea]
32 | 830 | O=C1CCCc2[nH]c(-c3ccnc(NCc4ccc(F)cc4)c3)c(Nc3ccccc3)c21 [Example 499, 2-{2-[(4-fluorobenzyl)amino]pyridin-4-yl}-3-(phenylamino)-1,5,6,7-tetrahydro-4H-indol-4-one]
33 | 312 | CC1(C)CC(=O)c2c([nH]c(-c3ccnc(C(F)F)c3)c2Nc2cccc(F)c2)C1 [Example 402, 2-[2-(difluoromethyl)pyridin-4-yl]-3-[(3-fluorophenyl)amino]-6,6-dimethyl-1,5,6,7-tetrahydro-4H-indol-4-one]
34 | 345 | CC1(C)CC(=O)c2c([nH]c(-c3ccncc3C(F)(F)F)c2Nc2ccccc2)C1 [Example 438, 6,6-dimethyl-3-(phenylamino)-2-[3-(trifluoromethyl)pyridin-4-yl]-1,5,6,7-tetrahydro-4H-indol-4-one]
35 | 193 | CC1(C)CC(=O)c2c([nH]c(-c3ccnc(NCc4cncs4)c3)c2Nc2ccccc2)C1 [Example 508, 6,6-dimethyl-3-(phenylamino)-2-{2-[(1,3-thiazol-5-ylmethyl)amino]pyridin-4-yl}-1,5,6,7-tetrahydro-4H-indol-4-one]
